{"source": "patent US8288437B2", "about": "“Salts, aqueous liquid compositions containing salts of abscisic acid analogs and methods of their preparation” (Valent BioSciences Corporation, priority 2008, dated 2012)", "origin": "cited, not measured here", "conditions": "pure water at room temperature", "data": [{"smiles": "CC1=CC(=O)CC(C)(C)[C@@]1(O)/C=C/C(C)=C\\C(=O)O", "note": "[(S)-(+)-abscisic acid, 2-cis-,4-trans-(S)-(+)-abscisic acid]", "values": [{"measurement": "highest concentration that can be achieved in pure water", "value": "≤ 3000", "unit": "ppm"}]}]}
